Source: patent US11912682B2, “Isoindolinone compounds” (Monte Rosa Therapeutics, Inc., priority 2021, dated 2024)

Experiments:
GSPT1 [1] = biological target: T1, GSPT1 (Homo sapiens (Human), UniProt P15170+Q96SW2); experiment: immunofluorescence assay for GSPT1 degradation in CAL-51 cells (Example 10); format: cell-based; conditions: read-out: IF Class (GSPT1 degradation DC50)
Procedure: The representative compounds were tested in an immunofluorescence assay for their activity to degrade GSPT1. […] Compounds were stored at 10 mM DMSO stocks. […] Cells were subsequently rinsed with PBS and fixed in 10% Formalin solution (50 μl, Sigma HT5011)) for 20 mins at room temperature. […] Following three further PBS washes, 50 μL blocking buffer (1% BSA, Sigma A4503, in PBS) was added for 45 min for signal-to noise reduction. Primary antibody (human GSPT1, Sigma HPA052488) was diluted in blocking buffer (dil.1/300, 35 μL/well) and incubated with the cells overnight at 4° C. […] After three final PBS washes, samples were conserved in 100 μL PBS in the dark, until measurement. Image acquisition was performed on the Operetta High-Content Imager (Perkin-Elmer). […] For the determination of GSPT1 DC50 values, a custom algorithm implemented in the PerkinElmer image analysis software Harmony-Acapella® was developed. After user-defined setting of adjustment parameters, the analysis was run identically without human intervention for all image fields. DAPI staining of the nuclei was used to determine the location of cells using standard nuclei detection modules. Segmentation artifacts were removed by threshold-based filters for area, roundness and intensity. The outline of the cells was determined analogously from the sum of the normalized, smoothed DAPI and Actin channel, starting from each nucleus. […] GSPT1 degradation (DC50) was calculated after normalization to controls and data import in CDD vault Database, using non-linear regression.

[2] = biological target: Full length wild-type cereblon CRBN (Homo sapiens (Human), UniProt Q96SW2); experiment: fluorescence polarization (FP) assay, cereblon binding; conditions: read-out: rFP IC50
Chain of Full length wild-type cereblon CRBN (Q96SW2 whole entry): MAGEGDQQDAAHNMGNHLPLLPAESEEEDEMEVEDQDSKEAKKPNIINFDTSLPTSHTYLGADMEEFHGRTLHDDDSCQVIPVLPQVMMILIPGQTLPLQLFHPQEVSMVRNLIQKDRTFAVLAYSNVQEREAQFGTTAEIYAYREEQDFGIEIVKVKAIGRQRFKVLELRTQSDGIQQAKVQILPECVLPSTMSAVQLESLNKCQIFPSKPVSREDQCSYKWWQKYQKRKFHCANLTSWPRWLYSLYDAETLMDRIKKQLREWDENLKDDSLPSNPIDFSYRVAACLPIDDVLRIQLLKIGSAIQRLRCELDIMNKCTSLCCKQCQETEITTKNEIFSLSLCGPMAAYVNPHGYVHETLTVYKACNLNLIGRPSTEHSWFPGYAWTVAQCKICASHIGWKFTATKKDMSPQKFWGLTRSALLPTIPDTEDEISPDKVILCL
In short: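 Full-length wild-type CRBN (80.0 nM as dispensed) preincubated 30 min at room temperature with compound in HEPES pH 8.0, NaCl, TCEP, 0.05% Tween 20.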

GSPT1 [3] = biological target: T1, GSPT1; experiment: immunofluorescence assay for GSPT1 degradation in CAL-51 cells (Example 4); format: cell-based; conditions: 6 hours, read-out: Activity for GSPT1 degradation, Code (DC50)
In short: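 CAL-51 cells on fibronectin-coated plates were treated 6 h with serial dilutions (30 μM to 0.1 nM), then fixed and immunostained for GSPT1 with DAPI and phalloidin counterstains. Per-cell mean GSPT1 intensity from high-content imaging, normalized to controls; DC50 by non-linear regression.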

T1 sequence (P15170 whole entry): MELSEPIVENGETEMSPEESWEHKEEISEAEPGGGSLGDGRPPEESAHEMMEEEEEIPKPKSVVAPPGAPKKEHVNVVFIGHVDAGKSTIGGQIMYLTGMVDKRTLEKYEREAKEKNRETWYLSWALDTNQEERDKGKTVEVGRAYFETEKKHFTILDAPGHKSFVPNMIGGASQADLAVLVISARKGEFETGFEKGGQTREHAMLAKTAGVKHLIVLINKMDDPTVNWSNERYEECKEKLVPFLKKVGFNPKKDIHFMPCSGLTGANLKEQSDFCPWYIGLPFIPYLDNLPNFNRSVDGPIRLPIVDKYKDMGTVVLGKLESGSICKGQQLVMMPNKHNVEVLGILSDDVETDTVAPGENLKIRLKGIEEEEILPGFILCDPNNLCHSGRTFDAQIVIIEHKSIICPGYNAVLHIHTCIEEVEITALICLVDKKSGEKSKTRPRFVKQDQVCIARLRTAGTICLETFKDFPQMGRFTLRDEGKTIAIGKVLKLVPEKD
T1 sequence (Q96SW2 whole entry): as the sequence (Q96SW2 whole entry) above
T1 sequence (Q16531 2-1140 partner): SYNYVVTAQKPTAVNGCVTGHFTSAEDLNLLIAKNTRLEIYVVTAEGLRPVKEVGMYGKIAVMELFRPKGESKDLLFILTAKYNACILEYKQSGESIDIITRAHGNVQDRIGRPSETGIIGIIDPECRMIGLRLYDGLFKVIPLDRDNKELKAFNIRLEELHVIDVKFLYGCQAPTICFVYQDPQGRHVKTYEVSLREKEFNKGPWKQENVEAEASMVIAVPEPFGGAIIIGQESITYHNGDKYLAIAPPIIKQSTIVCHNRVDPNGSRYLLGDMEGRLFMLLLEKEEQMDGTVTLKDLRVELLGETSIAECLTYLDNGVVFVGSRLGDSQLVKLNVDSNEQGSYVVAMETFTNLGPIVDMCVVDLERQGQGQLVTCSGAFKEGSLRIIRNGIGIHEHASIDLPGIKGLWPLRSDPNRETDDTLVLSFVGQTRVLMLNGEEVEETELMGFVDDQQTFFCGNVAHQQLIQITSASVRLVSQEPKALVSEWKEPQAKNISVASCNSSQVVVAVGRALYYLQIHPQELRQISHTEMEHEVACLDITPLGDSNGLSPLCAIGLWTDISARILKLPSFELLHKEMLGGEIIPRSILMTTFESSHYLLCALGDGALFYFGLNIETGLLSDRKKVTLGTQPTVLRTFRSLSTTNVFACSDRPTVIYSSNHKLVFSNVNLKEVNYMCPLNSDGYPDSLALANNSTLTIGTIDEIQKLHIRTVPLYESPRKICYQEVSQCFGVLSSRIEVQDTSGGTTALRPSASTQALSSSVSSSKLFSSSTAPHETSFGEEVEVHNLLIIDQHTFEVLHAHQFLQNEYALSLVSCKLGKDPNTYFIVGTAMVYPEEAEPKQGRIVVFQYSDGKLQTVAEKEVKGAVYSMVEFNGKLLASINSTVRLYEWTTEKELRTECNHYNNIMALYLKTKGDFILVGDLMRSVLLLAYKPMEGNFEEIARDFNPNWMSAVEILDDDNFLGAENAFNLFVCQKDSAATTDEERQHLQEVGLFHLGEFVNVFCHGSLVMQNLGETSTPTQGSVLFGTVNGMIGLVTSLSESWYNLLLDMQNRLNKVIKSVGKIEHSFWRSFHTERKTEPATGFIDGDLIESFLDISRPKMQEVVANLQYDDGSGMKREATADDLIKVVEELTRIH

O=C1CCC(N2Cc3ccc(COC(=O)Nc4cccc(OC(F)(F)F)c4F)cc3C2=O)C(=O)N1 (stereo not shown) [Compound 169]
DC50 (GSPT1 [1]; CAL-51 cells, 6 h): 30 to 300 nM

O=C1CCC(N2Cc3ccc(COC(=O)Nc4cc(OC(F)(F)F)c(F)cc4F)cc3C2=O)C(=O)N1 (stereo not shown) [Compound 200, (2-(2,6-dioxopiperidin-3-yl)-3-oxoisoindolin-5-yl)methyl (2,4-difluoro-5-(trifluoromethoxy)phenyl)carbamate]
DC50 (GSPT1 [1]; CAL-51 cells, 6 h): 30 to 300 nM

Cc1cc(F)c(NC(=O)OCc2ccc3c(c2)C(=O)N(C2CCC(=O)NC2=O)C3)cc1OC(C)C (stereo not shown) [Compound 230, (2-(2,6-dioxopiperidin-3-yl)-3-oxoisoindolin-5-yl)methyl (2-fluoro-5-isopropoxy-4-methylphenyl)carbamate]
DC50 (GSPT1 [1]; CAL-51 cells, 6 h): < 30 nM

O=C1CCC(N2Cc3ccc(COC(=O)Nc4cccc(Cl)c4)cc3C2=O)C(=O)N1 (stereo not shown) [Compound 239, (2-(2,6-dioxopiperidin-3-yl)-3-oxoisoindolin-5-yl)methyl (3-chlorophenyl)carbamate]
DC50 (GSPT1 [1]; CAL-51 cells, 6 h): < 30 nM

Cc1cc(F)c(NC(=O)OCc2ccc3c(c2)C(=O)N(C2CCC(=O)NC2=O)C3)cc1OC(F)F (stereo not shown) [Compound 201, (2-(2,6-dioxopiperidin-3-yl)-3-oxoisoindolin-5-yl) methyl (5-(difluoromethoxy)-2-fluoro-4-methylphenyl)carbamate]
DC50 (GSPT1 [1]; CAL-51 cells, 6 h): 30 to 300 nM

O=C1CCC(N2Cc3ccc(COC(=O)NC45CC(C(F)F)(C4)C5)cc3C2=O)C(=O)N1 (stereo not shown) [Compound 219, (2-(2,6-dioxopiperidin-3-yl)-3-oxoisoindolin-5-yl)methyl (3-(difluoromethyl)bicyclo[1.1.1]pentan-1-yl) carbamate]
DC50 (GSPT1 [1]; CAL-51 cells, 6 h): > 300 nM

CCc1cccc(NC(=O)OCc2ccc3c(c2)C(=O)N(C2CCC(=O)NC2=O)C3)c1 (stereo not shown) [Compound 220, (2-(2,6-dioxopiperidin-3-yl)-3-oxoisoindolin-5-yl)methyl (3-ethylphenyl)carbamate]
DC50 (GSPT1 [1]; CAL-51 cells, 6 h): < 30 nM

COC(=O)C12CC(NC(=O)OCc3ccc4c(c3)C(=O)N(C3CCC(=O)NC3=O)C4)(C1)C2 (stereo not shown) [Compound 203, methyl 3-((((2-(2,6-dioxopiperidin-3-yl)-3-oxoisoindolin-5-yl)methoxy)carbonyl)amino)bicyclo[1.1.1]pentane-1-carboxylate]
DC50 (GSPT1 [1]; CAL-51 cells, 6 h): > 300 nM

CC(C)(C)[C@H]1C[C@H](NC(=O)OCc2ccc3c(c2)C(=O)N(C2CCC(=O)NC2=O)C3)C1 (stereo partly drawn) [Compound 185, trans-(2-(2,6-dioxopiperidin-3-yl)-3-oxoisoindolin-5-yl)methyl ((1s,3s)-3-(tert-butyl)cyclobutyl)carbamate]
DC50 (GSPT1 [1]; CAL-51 cells, 6 h): > 300 nM

O=C1CCC(N2Cc3ccc(COC(=O)Nc4cc(Cl)cc5c4OCC5)cc3C2=O)C(=O)N1 (stereo not shown) [Compound 189]
DC50 (GSPT1 [1]; CAL-51 cells, 6 h): 30 to 300 nM

O=C1CCC(N2Cc3ccc(COC(=O)NC45CC(CF)(C4)C5)cc3C2=O)C(=O)N1 (stereo not shown) [Compound 202, (2-(2,6-dioxopiperidin-3-yl)-3-oxoisoindolin-5-yl)methyl (3-(fluoromethyl)bicyclo[1.1.1]pentan-1-yl) carbamate]
DC50 (GSPT1 [1]; CAL-51 cells, 6 h): > 300 nM

Cc1cc(F)c(NC(=O)OCc2ccc3c(c2)C(=O)N(C2CCC(=O)NC2=O)C3)cc1C (stereo not shown) [Compound 208, (2-(2,6-dioxopiperidin-3-yl)-3-oxoisoindolin-5-yl)methyl (2-fluoro-4,5-dimethylphenyl)carbamate]
DC50 (GSPT1 [1]; CAL-51 cells, 6 h): > 300 nM

O=C1CCC(N2Cc3ccc(COC(=O)NC45CC(c6ccccc6F)(C4)C5)cc3C2=O)C(=O)N1 (stereo not shown) [Compound 174, (2-(2,6-dioxopiperidin-3-yl)-3-oxoisoindolin-5-yl)methyl (3-(2-fluorophenyl)bicyclo[1.1.1]pentan-1-yl) carbamate]
DC50 (GSPT1 [1]; CAL-51 cells, 6 h): < 30 nM

CC(F)(F)c1ccc(F)c(NC(=O)OCc2ccc3c(c2)C(=O)N(C2CCC(=O)NC2=O)C3)c1 (stereo not shown) [Compound 234]
DC50 (GSPT1 [1]; CAL-51 cells, 6 h): > 300 nM

CCCOc1ccc(F)c(NC(=O)OCc2ccc3c(c2)C(=O)N(C2CCC(=O)NC2=O)C3)c1 (stereo not shown) [Compound 226, (2-(2,6-dioxopiperidin-3-yl)-3-oxoisoindolin-5-yl)methyl (2-fluoro-5-propoxyphenyl)carbamate]
DC50 (GSPT1 [1]; CAL-51 cells, 6 h): 30 to 300 nM

O=C1CCC(N2Cc3ccc(COC(=O)Nc4cccc(C5CC5)c4)cc3C2=O)C(=O)N1 (stereo not shown) [Compound 216, (2-(2,6-dioxopiperidin-3-yl)-3-oxoisoindolin-5-yl)methyl (3-cyclopropylphenyl)carbamate]
DC50 (GSPT1 [1]; CAL-51 cells, 6 h): < 30 nM

CCOc1ccc(F)c(NC(=O)OCc2ccc3c(c2)C(=O)N(C2CCC(=O)NC2=O)C3)c1 (stereo not shown) [Compound 223, (2-(2,6-dioxopiperidin-3-yl)-3-oxoisoindolin-5-yl)methyl (5-ethoxy-2-fluorophenyl)carbamate]
DC50 (GSPT1 [1]; CAL-51 cells, 6 h): > 300 nM

C[C@@H]1CCCN1c1cnc(NC(=O)OCc2ccc3c(c2)C(=O)N(C2CCC(=O)NC2=O)C3)c(F)c1 (stereo partly drawn) [Compound 232, (2-(2,6-dioxopiperidin-3-yl)-3-oxoisoindolin-5-yl)methyl (3-fluoro-5-((R)-2-methylpyrrolidin-1-yl)pyridin-2-yl)carbamate]
DC50 (GSPT1 [1]; CAL-51 cells, 6 h): 30 to 300 nM

Cc1cc(NC(=O)OCc2ccc3c(c2)C(=O)N(C2CCC(=O)NC2=O)C3)ncc1N1CCC[C@H]1C (stereo partly drawn) [Compound 237, (2-(2,6-dioxopiperidin-3-yl)-3-oxoisoindolin-5-yl)methyl (4-methyl-5-((R)-2-methylpyrrolidin-1-yl)pyridin-2-yl)carbamate]
DC50 (GSPT1 [1]; CAL-51 cells, 6 h): 30 to 300 nM

O=C1CCC(N2Cc3ccc(COC(=O)Nc4cccc5c4OCC5)cc3C2=O)C(=O)N1 (stereo not shown) [Compound 173]
DC50 (GSPT1 [1]; CAL-51 cells, 6 h): > 300 nM

CC(C)c1cccc(NC(=O)OCc2ccc3c(c2)C(=O)N(C2CCC(=O)NC2=O)C3)c1 (stereo not shown) [Compound 217, (2-(2,6-dioxopiperidin-3-yl)-3-oxoisoindolin-5-yl)methyl (3-isopropylphenyl)carbamate]
DC50 (GSPT1 [1]; CAL-51 cells, 6 h): < 30 nM

O=C1CCC(N2Cc3ccc(COC(=O)NC45CC(F)(C4)C5)cc3C2=O)C(=O)N1 (stereo not shown) [Compound 190]
DC50 (GSPT1 [1]; CAL-51 cells, 6 h): > 300 nM

Cc1cc(F)c(NC(=O)OCc2ccc3c(c2)C(=O)N(C2CCC(=O)NC2=O)C3)cc1C(F)(F)F (stereo not shown) [Compound 233]
DC50 (GSPT1 [1]; CAL-51 cells, 6 h): 30 to 300 nM

O=C1CCC(N2Cc3ccc(COC(=O)Nc4cc(C5CC5)ccc4F)cc3C2=O)C(=O)N1 (stereo not shown) [Compound 207, (2-(2,6-dioxopiperidin-3-yl)-3-oxoisoindolin-5-yl)methyl (5-cyclopropyl-2-fluorophenyl) carbamate]
DC50 (GSPT1 [1]; CAL-51 cells, 6 h): 30 to 300 nM

O=C1CCC(N2Cc3ccc(COC(=O)NC4CN(c5ccccc5)C4)cc3C2=O)C(=O)N1 (stereo not shown) [Compound 167]
DC50 (GSPT1 [1]; CAL-51 cells, 6 h): > 300 nM

Cc1ccc(NC(=O)OCc2ccc3c(c2)C(=O)N(C2CCC(=O)NC2=O)C3)nc1Cl (stereo not shown) [Compound 183, (2-(2,6-dioxopiperidin-3-yl)-3-oxoisoindolin-5-yl)methyl (6-chloro-5-methylpyridin-2-yl)carbamate]
DC50 (GSPT1 [1]; CAL-51 cells, 6 h): 30 to 300 nM

Cc1cc(NC(=O)OCc2ccc3c(c2)C(=O)N(C2CCC(=O)NC2=O)C3)cc(Cl)c1C#N (stereo not shown) [Compound 177, (2-(2,6-diox opiperidin-3-yl)-3-oxoisoindolin-5-yl)methyl(3-chloro-4-cyano-5-methylphenyl)carbamate]
DC50 (GSPT1 [1]): 30 to 300 nM

CC(C)(C)Oc1ccc(F)c(NC(=O)OCc2ccc3c(c2)C(=O)N(C2CCC(=O)NC2=O)C3)c1 (stereo not shown) [Compound 222, (2-(2,6-dioxopiperidin-3-yl)-3-oxoisoindolin-5-yl)methyl (5-(tert-butoxy)-2-fluorophenyl)carbamate]
DC50 (GSPT1 [1]; CAL-51 cells, 6 h): 30 to 300 nM

O=C1CCC(N2Cc3ccc(COC(=O)Nc4cc(Cl)ccc4F)cc3C2=O)C(=O)N1 (stereo not shown) [Compound 163, (2-(2,6-dioxopiperidin-3-yl)-3-oxoisoindolin-5-yl)methyl (5-chloro-2-fluorophenyl)carbamate]
DC50 (GSPT1 [1]; CAL-51 cells, 6 h): > 300 nM

O=C1CCC(N2Cc3ccc(COC(=O)NC45C6C7C4C4C5C6C74c4ccccc4)cc3C2=O)C(=O)N1 (stereo not shown) [Compound 225, (2-(2,6-dioxopiperidin-3-yl)-3-oxoisoindolin-5-yl)methyl (4-phenylcuban-1-yl)carbamate]
DC50 (GSPT1 [1]; CAL-51 cells, 6 h): > 300 nM

CC(C)(C)c1cccc(NC(=O)OCc2ccc3c(c2)C(=O)N(C2CCC(=O)NC2=O)C3)n1 (stereo not shown) [Compound 170, (2-(2,6-dioxopiperidin-3-yl)-3-oxoisoindolin-5-yl)methyl (6-(tert-butyl)pyridin-2-yl)carbamate]
DC50 (GSPT1 [1]; CAL-51 cells, 6 h): 30 to 300 nM

CN1CCC(COc2cc(Cl)cc(NC(=O)OCc3ccc4c(c3)C(=O)N(C3CCC(=O)NC3=O)C4)c2)C1 (stereo not shown) [Compound 40]
IC50 [2]: < 500 nM | DC50 (GSPT1 [3]): 30 to 300 nM

O=C1CCC(N2Cc3ccc(COC(=O)Nc4cc(-c5ccccc5)ccn4)cc3C2=O)C(=O)N1 (stereo not shown) [Compound 155, (2-(2,6-dioxopiperidin-3-yl)-3-oxoisoindolin-5-yl)methyl (4-phenylpyridin-2-yl)carbamate]
IC50 [2]: > 1700 nM | DC50 (GSPT1 [3]): 30 to 300 nM

O=C1CCC(N2Cc3ccc(COC(=O)Nc4cnc(N5CCCCC5)cn4)cc3C2=O)C(=O)N1 (stereo not shown) [Compound 94]
IC50 [2]: < 500 nM | DC50 (GSPT1 [3]): 30 to 300 nM
